Experiments:
[1] = tested on: A375 melanoma cancer cell line; test: Sulforhodamine B viability assay, A375; format: cell-based, human; conditions: for ABSORBANCE: 0.1 μg/mL cisplatin; for Average absorbance, SRB 24 h / Average absorbance, SRB 48 h / Average absorbance, SRB 72 h: A375 Run 1
Description: (§1) Three different viability assays were chosen to complement each other and yielded results dependent on concentration and cell line: the Methyl Tetrazolium dye assay, the Sulforhodamine B fluorescent dye assay, and the Crystal Violet dye assay.
(§2) The Sulforhodamine B and Crystal Violet assays provide information about protein and were used to complement the Methyl-Tetrazolium dye assay. […] It is used for the quantification of cellular proteins of cultured cells. The assay using Crystal Violet, a dye that binds electrostatically to proteins and stains DNA, provides a reliable, simple assay for measuring viability of cells.
(§3) The Methyl Tetrazolium, Sulforhodamine B, and Crystal Violet assays were used to assess cell viabilities. The incubation times were 24 hours, 48 hours, and 72 hours. The Nerium oleander extract Anvirzel™ (a hot water extract of oleander obtained from Salud Integral, Honduras) was tested in concentrations ranging from 0.01 ng/mL to 10 ng/mL.
(§4) Cells were detached by trypsinization (Trypsin-0.25% EDTA, Invitrogen, 25200-072) during the logarithmic phase of culture growth and plated in 96-well plates (18.000 cells/well) (Corning, Costar 359) in a final volume of 200 μl of medium per well. […] The absorbance was measured after 24 hours, 48 hours, and 72 hours of incubation.
For the Sulforhodamine B assay, 96-well plates were fixed by 10% trichloroacetic acid (Fluka, 91228) and were incubated at 4° C. for 1 hour. Afterwards, plates were rinsed with water and cells were stained with 0.4% Sulforhodamine B (Sigma, 341738), dissolved in 1% acetic acid (Carlo Ebra, 401422) for 15 minutes at room temperature (RT). The unbound stain was washed twice with 1% acetic acid. Finally, 10 mM Tris Buffer pH 10.5 (Sigma, T6791) was added to dissolve the dye.
(§5) The optical density of each plate was measured on a μQuant spectrophotometer and the data were analyzed with Gen5 software (μQuant Biomolecular Spectrophotometer MQX200 and Gen5™ Microplate Data Collection & Analysis software, BioTek® Instruments. Inc, April 2008). Absorbance was measured at 570 nm for all assays and a second wavelength was measured in order to subtract noise. For the Methyl-Tetrazolium assay this second wavelength was 630 nm and for the Sulforhodamine B and Crystal Violet assays it was 690 nm.

[2] = tested on: PANC-1 pancreatic cancer cell line; test: Crystal Violet viability assay, PANC-1; format: cell-based, human; conditions: for ABSORBANCE: 0.1 μg/mL cisplatin; for CVE 24 h / CVE 48 h / CVE 72 h: Run 1 average
Description: as §1, §2, §3, §4
For the Crystal Violet assay, the medium was removed from the 96-well plates, the plates rinsed with PBS (Sigma, P3813) and then the cells were […] by the addition of 10% formalin (MERCK, 1.04003.2500) for 20 minutes at RT. Formalin was removed and 0.25% aqueous crystal violet (Sigma, HT901), dissolved in water, was added for 10 minutes at RT. Unbound Crystal Violet was rinsed by washing with water and finally 33% acetic acid was added to dissolve the dye.
as §5

N.N.[Cl][Pt][Cl] [cisplatin]
ABSORBANCE ([1]; A375, 48 h): 2.421 | ABSORBANCE ([1]; A375, 72 h): 2.487 | Average absorbance, SRB 24 h ([1]; 0.1 μg/ml CDDP): 2.072 | Average absorbance, SRB 48 h ([1]; 0.1 μg/ml CDDP): 2.421 | Average absorbance, SRB 72 h ([1]; 0.1 μg/ml CDDP): 2.487 | Average absorbance, SRB 24 h ([1]; 1 μg/ml CDDP): 1.579 | Average absorbance, SRB 48 h ([1]; 1 μg/ml CDDP): 1.987 | Average absorbance, SRB 72 h ([1]; 1 μg/ml CDDP): 2.256 | Average absorbance, SRB 24 h ([1]; 10 μg/ml CDDP): 1.117 | Average absorbance, SRB 48 h ([1]; 10 μg/ml CDDP): 1.678 | Average absorbance, SRB 72 h ([1]; 10 μg/ml CDDP): 1.913 | Average absorbance, SRB 24 h ([1]; 100 μg/ml CDDP): 1.283 | Average absorbance, SRB 48 h ([1]; 100 μg/ml CDDP): 1.782 | Average absorbance, SRB 72 h ([1]; 100 μg/ml CDDP): 1.319 | Average absorbance SRB ([1]; A375 Run 2, 24 h, 0.1 μg/ml CDDP): 2.189 | Average absorbance SRB ([1]; A375 Run 2, 24 h, 1 μg/ml CDDP): 1.916 | Average absorbance SRB ([1]; A375 Run 2, 24 h, 10 μg/ml CDDP): 1.827 | Average absorbance SRB ([1]; A375 Run 2, 24 h, 100 μg/ml CDDP): 1.939 | Average absorbance SRB ([1]; A375 Run 2, 48 h, 0.1 μg/ml CDDP): 2.571 | Average absorbance SRB ([1]; A375 Run 2, 48 h, 1 μg/ml CDDP): 1.366 | Average absorbance SRB ([1]; A375 Run 2, 48 h, 10 μg/ml CDDP): 1.265 | Average absorbance SRB ([1]; A375 Run 2, 48 h, 100 μg/ml CDDP): 1.293 | Average absorbance SRB ([1]; A375 Run 2, 72 h, 0.1 μg/ml CDDP): 2.634 | Average absorbance SRB ([1]; A375 Run 2, 72 h, 1 μg/ml CDDP): 2.085 | Average absorbance SRB ([1]; A375 Run 2, 72 h, 10 μg/ml CDDP): 1.617 | Average absorbance SRB ([1]; A375 Run 2, 72 h, 100 μg/ml CDDP): 1.491 | Average absorbance SRB ([1]; A375 Run 3, 24 h, 0.1 μg/ml CDDP): 1.597 | Average absorbance SRB ([1]; A375 Run 3, 24 h, 1 μg/ml CDDP): 1.126 | Average absorbance SRB ([1]; A375 Run 3, 24 h, 10 μg/ml CDDP): 1.294 | Average absorbance SRB ([1]; A375 Run 3, 24 h, 100 μg/ml CDDP): 0.982 | Average absorbance SRB ([1]; A375 Run 3, 48 h, 0.1 μg/ml CDDP): 2.175 | Average absorbance SRB ([1]; A375 Run 3, 48 h, 1 μg/ml CDDP): 1.83 | Average absorbance SRB ([1]; A375 Run 3, 48 h, 10 μg/ml CDDP): 1.586 | Average absorbance SRB ([1]; A375 Run 3, 48 h, 100 μg/ml CDDP): 1.572 | Average absorbance SRB ([1]; A375 Run 3, 72 h, 0.1 μg/ml CDDP): 2.184 | Average absorbance SRB ([1]; A375 Run 3, 72 h, 1 μg/ml CDDP): 1.491 | Average absorbance SRB ([1]; A375 Run 3, 72 h, 10 μg/ml CDDP): 1.571 | Average absorbance SRB ([1]; A375 Run 3, 72 h, 100 μg/ml CDDP): 1.271 | ABSORBANCE ([2]; PANC-1, 48 h): 0.753 | ABSORBANCE ([2]; PANC-1, 72 h): 0.872 | Average CVE ([2]; PANC-1, Run 2, 24 h, 0.1 μg/ml CDDP): 0.793 | Average CVE ([2]; PANC-1, Run 2, 24 h, 1 μg/ml CDDP): 0.456 | Average CVE ([2]; PANC-1, Run 2, 24 h, 10 μg/ml CDDP): 0.602 | Average CVE ([2]; PANC-1, Run 2, 24 h, 100 μg/ml CDDP): 0.345 | Average CVE ([2]; PANC-1, Run 2, 48 h, 0.1 μg/ml CDDP): 0.575 | Average CVE ([2]; PANC-1, Run 2, 48 h, 1 μg/ml CDDP): 0.249 | Average CVE ([2]; PANC-1, Run 2, 48 h, 10 μg/ml CDDP): 0.33 | Average CVE ([2]; PANC-1, Run 2, 48 h, 100 μg/ml CDDP): 0.323 | Average CVE ([2]; PANC-1, Run 2, 72 h, 0.1 μg/ml CDDP): 0.839 | Average CVE ([2]; PANC-1, Run 2, 72 h, 1 μg/ml CDDP): 0.514 | Average CVE ([2]; PANC-1, Run 2, 72 h, 10 μg/ml CDDP): 0.49 | Average CVE ([2]; PANC-1, Run 2, 72 h, 100 μg/ml CDDP): 0.385 | Average CVE ([2]; PANC-1, Run 3, 24 h, 0.1 μg/ml CDDP): 0.476 | Average CVE ([2]; PANC-1, Run 3, 24 h, 1 μg/ml CDDP): 0.457 | Average CVE ([2]; PANC-1, Run 3, 24 h, 10 μg/ml CDDP): 0.698 | Average CVE ([2]; PANC-1, Run 3, 24 h, 100 μg/ml CDDP): 0.428 | Average CVE ([2]; PANC-1, Run 3, 48 h, 0.1 μg/ml CDDP): 0.753 | Average CVE ([2]; PANC-1, Run 3, 48 h, 1 μg/ml CDDP): 0.395 | Average CVE ([2]; PANC-1, Run 3, 48 h, 10 μg/ml CDDP): 0.218 | Average CVE ([2]; PANC-1, Run 3, 48 h, 100 μg/ml CDDP): 0.18 | Average CVE ([2]; PANC-1, Run 3, 72 h, 0.1 μg/ml CDDP): 0.872 | Average CVE ([2]; PANC-1, Run 3, 72 h, 1 μg/ml CDDP): 0.358 | Average CVE ([2]; PANC-1, Run 3, 72 h, 10 μg/ml CDDP): 0.421 | Average CVE ([2]; PANC-1, Run 3, 72 h, 100 μg/ml CDDP): 0.253 | CVE 24 h ([2]; 0.1 μg/ml CDDP): 0.324 | CVE 48 h ([2]; 0.1 μg/ml CDDP): 0.717 | CVE 72 h ([2]; 0.1 μg/ml CDDP): 0.676 | CVE 24 h ([2]; 1 μg/ml CDDP): 0.125 | CVE 48 h ([2]; 1 μg/ml CDDP): 0.429 | CVE 72 h ([2]; 1 μg/ml CDDP): 0.262 | CVE 24 h ([2]; 10 μg/ml CDDP): 0.191 | CVE 48 h ([2]; 10 μg/ml CDDP): 0.466 | CVE 72 h ([2]; 10 μg/ml CDDP): 0.337 | CVE 24 h ([2]; 100 μg/ml CDDP): 0.153 | CVE 48 h ([2]; 100 μg/ml CDDP): 0.381 | CVE 72 h ([2]; 100 μg/ml CDDP): 0.28
